Data published in patent US20170182106A1, “COMPOSITION INCLUDING KIRENOL OR SIEGESBECKIA HERBA EXTRACT FOR MUSCLE FUNCTION IMPROVEMENT OR EXERCISE ABILITY ENHANCEMENT” (University-Industry Foundation, Yonsei University, priority 2014, published 2017).

How the values were obtained:
Assay type in all cases: cell-based
myogenin = myogenin mRNA expression in TNF-α-treated differentiated L6 cells (RT-PCR); details: TNF-α 24 hours, kirenol 10, 40 μM, FIG. 4
Procedure: (§1) L6 myoblasts (American Type Culture Collection, Manassas, Va., USA), which are muscle cells, were incubated in DMEM (10% FBS, 100 U/mL penicillin, 100 μg/mL streptomycin). When the cell density reached about 80-85%, the cell culture medium was replaced with a DMEM growth medium supplemented with 2% FBS. The experiment was initiated after 6 days of differentiation. To induce muscle reduction, the differentiated L6 cells were treated with TNF-α for 24 hours and then with the ethanol extract of Siegesbeckia orientalis L. (10, 40 ppm) prepared according to Example 3-1 and kirenol (10, 40 μM) prepared according to Example 4. RT-PCR was carried out to measure mRNA expression levels of myogenin and MyoD, which are muscle differentiation regulatory factors. TRIzol Reagent (Invitrogen, Carlsbad, Calif., USA) was used for harvesting total RNA from the differentiated cells, and the total RNA was reverse transcribed. The RT-PCR analysis was carried out as follows: First, the RNA was reverse transcribed for cDNA synthesis by using a reverse transcriptase. RT-PCR was conducted using specific primers as listed below, and β-actin was used to indicate that a constant amount of mRNA was loaded into each lane.

MuRF1 = MuRF1 mRNA expression in differentiated L6 cells (RT-PCR); details: kirenol 10, 40 μM, FIG. 6
atrogin-1 = atrogin-1 mRNA expression in differentiated L6 cells (RT-PCR); details: kirenol 10, 40 μM, FIG. 6
MyoD = MyoD mRNA expression in TNF-α-treated differentiated L6 cells (RT-PCR); details: TNF-α 24 hours, kirenol 10, 40 μM, FIG. 4
Procedure: as §1

PGC-1α = PGC-1α protein expression in L6 muscle cells (western blotting); details: 10 μM kirenol, 24 hours, vs 0.01% DMSO control, FIG. 11
Procedure: L6 myoblasts (myoblast; American Type Culture Collection, Manassas, Va., USA), which are muscle cells, were incubated in DMEM (Hyclone) containing 10% fetal bovine serum (FBS; Hyclone, Logan, Utah, USA), 100 U/mL penicillin, and 100 μg/mL streptomycin (Gibco, Grand Island, N.Y., USA). The L6 cells were treated with the Siegesbeckia glabrescens Mak. ethanol extract prepared according to Example 1-1, Siegesbeckia pubescens Mak. ethanol extract prepared according to Example 2-1, or Siegesbeckia orientalis L. ethanol extract prepared according to Example 3-1, each at a concentration of 10 ppm. Also, L6 cells were treated with 10 μM kirenol prepared according to Example 4. In this case, a group treated with 0.01% DMSO instead of being treated with a sample was prepared as a control group. 24 hours later, the L6 cells were dissolved in a RIPA (ELPIS-Biotech, Daejeon, Korea) buffer solution containing a proteinase inhibitor cocktail (Sigma-Aldrich, St. Louis, Mo., USA). […]
(§2) ECL western blotting detection reagents (Amersham, Tokyo, Japan) were used to color PGC-1α protein bands, and the G:BOX EF imaging system (Syngene, Cambridge, UK) was used to measure the densities of the colored protein bands. In this case, relative densities of protein bands of experimental groups treated with a sample were determined as a percentage (%), with the density of the control protein band being 100%. […]

p-mTOR = p-mTOR protein expression in L6 muscle cells (western blotting); details: 10 μM kirenol, 24 hours, vs 0.01% DMSO control, FIG. 1
Procedure: L6 myoblasts (American Type Culture Collection, Manassas, Va., USA), which are muscle cells, were incubated in Dulbecco's Modified Eagle's Medium (DMEM; Hyclone) containing 10% fetal bovine serum (FBS; Hyclone, Logan, Utah, USA), 100 U/mL penicillin, and 100 μg/mL streptomycin (Gibco, Grand Island, N.Y., USA). The L6 cells were treated with the Siegesbeckia glabrescens Mak. ethanol extract prepared according to the above Example 1-1, the Siegesbeckia pubescens Mak. ethanol extract prepared according to Example 2-1, or the Siegesbeckia orientalis L. ethanol extract prepared according to Example 3-1, each at a concentration of 10 ppm. Also, L6 cells were treated with 10 μM kirenol prepared according to Example 4. In this case, a group treated with 0.01% DMSO instead of being treated with a sample was prepared as a control group. […]
as §2, with “p-mTOR” for “PGC-1α”

SMILES: C[C@@]1(CO)C[C@@H](O)C[C@@]2(C)C3CC[C@](C)([C@@H](O)CO)C=C3CC[C@H]12 (stereo in doubt) [kirenol, (1R,3S,4aS,4bS,7S,10aS)-1,2,3,4,4a,4b,5,6,7,9,10,10a-Dodecahydro-3-hydroxy-7-[(R)-1,2-dihydroxyethyl]-1,4a,7-trimethylphenanthrene-1-methanol]
- mRNA expression level of myogenin (myogenin): increases
- mRNA expression level of MuRF1 (MuRF1): reduces
- mRNA expression level of atrogin-1 (atrogin-1): reduces
- mRNA expression level of MyoD (MyoD): increases
- protein expression level of PGC-1α (PGC-1α): increased
- protein expression level of p-mTOR (p-mTOR): increased
